Laboratory results published in patent EP4706685A1, “PHARMACEUTICAL FORMULATION COMPRISING LANOSTEROL, DERIVATIVE THEREOF, AND CYCLODEXTRIN” (CARBOEXPERT Inc., priority 2023, dated 2024).

Key:
[1] = system: mouse-derived macrophage cell line (Raw264.7); assay: Anti-inflammatory effect against LPS in macrophage cell line, cytokine mRNA by RT-PCR; assay type: cell-based; conditions: treated at 5 ug/ml; LPS 0.1 µg/ml, 4 hours
Procedure: Specifically, Raw264.7 was seeded into a […] at a density of 0.8 X 10^6 cells/well and cultured overnight. Then, the cells were pre-treated with inotodiol and the inotodiol/CD inclusion complex each at different concentrations for 2 hours. The cells were treated with lipopolysaccharide (LPS) at a concentration of 0.1 µg/ml and cultured for 4 hours to induce inflammation, after which RNA was extracted. Then, the mRNA expression of IL-6, IL-1β, and TNF-α was confirmed by a reverse transcription polymerase chain reaction (RT-PCR) method, and the results are shown in FIG. 6.

[2] = Stability in solution (visual observation of precipitation with auxiliary agent); assay type: physicochemical; conditions: precipitation observed visually after 24 hours at room temperature
Procedure: Specifically, unenclosed inotodiol or the inotodiol/CD inclusion complex was mixed with a prepared auxiliary agent. The auxiliary agent was prepared at a concentration of 100 to 15,000 ppm based on the weight of inotodiol, and then treated in a sonic bath at 50 °C for 30 minutes. Afterwards, the stability was determined by visually observing whether precipitation occurred after leaving the mixture at room temperature for 24 hours.

Q: Which “mRNA expression level of IL-6” value [1] does the source give for `CC(C)=CC[C@@H](O)[C@@H](C)[C@H]1CC[C@@]2(C)C3=C(CC[C@]12C)[C@@]1(C)CC[C@H](O)C(C)(C)[C@@H]1CC3` [inotodiol, (3S,5R,10S,13R,14R,17R)-17-[(2S,3R)-3-hydroxy-6-methylhept-5-en-2-yl]-4,4,10,13,14-pentamethyl-2,3,5,6,7,11,12,15,16,17-decahydro-1H-cyclopenta[a]phenanthren-3-ol] here?
A: The value was “significantly reduced”.

Q: And the “mRNA expression level of TNF-α” value [1]?
A: The value was “significantly reduced”.

Q: What about the “ppm of inotodiol in solution” value ([2]; Kolliphor (5 %)) of the same compound?
A: The value was 500 < ppm.

Q: And the “ppm of inotodiol in solution” value ([2]; Tween 80 (1 %))?
A: Its value is 100 < ppm.
